From US20120196335A1, “LIGF-TYPE TRANSFORMANTS FOR BIOCONVERSION OF LIGNIN-DERIVED COMPOUNDS” (priority 2010, published 2012)

B1: LigG: S. paucimobilis glutathione-eliminating glutathione S transferase, ligG gene product (protein)
chain: MSGASARSLGKGSAPPGPVPEGQIRVYSMRFCPFAQRTLMVLKAKGIRHEIININLKNKPEWFFEKNPFGLVPVLENTQGHLITESVITCEYLDEAYPEKKLFPDDPYEKACQKMTFELFSKVPSLVTSFIRAKRKEDHPGIKEELKKEFSKLEEAMANKRTAFFGGNSLSMIDYLIWPWFQRLEALELNECIDHTPKLKLWMATMQEDPVASSHFIDAKTYRDYLSLYLQDSPEACDYGL
B2: ligE: S. paucimobilis beta-etherase, positive control, GenBank BAA02032.1, SEQ ID NO:1 (protein)
chain: MARNNTITLYDLQLESGCTISPYVWRTKYALKHKGFDIDIVPGGFTGILERTGGRSERVPVIVDDGEWVLDSWVIAEYLDEKYPDRPMLFEGPTQKNLMKFLDNWLWSTAVGPWFRCYILDYHDLSLPQDRDYVRWSREQWFLGGQRLEDVQAGREDRLPLVPPTLEPFRRILAETKWLGGDQPNFADYSALAVFLWTASVARTPPLTEDDPLRDWLDRGFDLFDGLGRHPGMNPLFGLKLREGDPEPFVRQTGPAGAGGQALNKGPQTTKMPPRVAEKAD
B3: LigF2: N. aromaticivorans beta-etherase polypeptide, glutathione S-transferase-like protein, GenBank ABD27301.1, SEQ ID NO:541 (protein)
chain: MALKYYHAEPLANSLKSMVPLKEKGLAYESIYVDLHKFEQHQPWFTAINPEGQVPVLDHDGTIITHTTVINEYLEDAFPDAQPADAPLRPRDPVGAARMRYWNKFIDEHVMNYVSMHGWHRMVGVIARNIASGDFEKLLESIPLPDQRKKWATARSGFSEADLANATAKIEYALDKVEKQLGETKWLAGDTYTLADINFYSHCGAMVERMFPEMEVARRAPRLCEWRDRVAARPAVAEALKSEDRTAPGLRVWSGEVR
B4: ligE1: N. aromaticivorans beta-etherase polypeptide, glutathione S-transferase-like protein, GenBank ABD26841.1, SEQ ID NO:101 (protein)
chain: MAANNTITFYDLALSTGATISPFVWATKYALKHKGFDLDVVPGGFTGILERTGGKTERLPAIVDDGEFVLDSWGIVEYLDAKYPDRPVLIPHESVAATLKALDNWFWNAAVGPWMFCFCQDYRDLSLPQDHEYVTHSREKMLGRKLEEVQAGREERLPKISAALEPLRAALAQHQWLGGSSPNYADYRIMGGILFTASVCKTPVLANDDPLRDWIERCLDLYGGLGRHPGLFPLFGLEQREGDPDLFNRAAGQGGIYKRNTGPESTRAETQRITEGMKK
B5: ABD26530.1: N. aromaticivorans putative beta-etherase polypeptide LigF-1, SEQ ID NO:539 (protein)
chain: MVIPLGEDNTIMLKLYSFGPAANSMKPLLTVFEKGLDVEKHRLDPAKFEHHTDWFKAINPRGQVPALVDGDKVVTESTVICEYLEDEYPTEVALRPADSFGKAQMRIWTKWVDEYFCWCVSTIGWHRYVGNMVKSLSDAEFEEKVKAIPVIEQQVKWRRAREGFPQDMLDEEMRKIAYSVRKLDDHLADHEWLVPGQYTLADICNFAIANGMQFGFAELVNKQDTPHLVRWIEQINERPAVKQMFAQVELEKLGPRE
B6: ABD27309.1: N. aromaticivorans putative beta-etherase polypeptide LigF-3, SEQ ID NO:545 (protein)
chain: MDEVSLYHWEPNANSGKPMLALMEKGVPFSSHYIDMLQFDQHKPEYLAINPQGTIPAMTHNGQVLTESTAIMEYVNDRFDGPDLMPADAQDRWRVRWWMKFMDQWLGPSFSMIGWSVFVGPMVRQRDPAELAAAIDRIPLPERRTAWRKAINGDFSESEMAESRRRVGLGIAKLEEELGKRPYVGSNQYSLADINIFNSTYSLPISQPDLAGKDRTPNIMRWLKRVYTREAVKKTWAMGKTDLAHRYGLIMAEIEG

Test system: Saccharomyces cerevisiae
Experiment: not given
Details: each compound alone; cited from earlier work

Molecule	antifungal activity against the yeast Saccharomyces cerevisiae
O=C(O)/C=C/c1cccc(O)c1 [m-coumaric acid]	significant antifungal activities
COc1cc(C(=O)O)ccc1O [vanillic acid]	significant antifungal activities
COc1cc(CCC(C)=O)ccc1O [vanillylacetone]	significant antifungal activities
O=C(O)/C=C/c1ccc(O)cc1 [p-coumaric acid]	significant antifungal activities
O=C(O)/C=C/c1ccccc1O [o-coumaric acid]	significant antifungal activities
COc1ccc(C=O)cc1OC [Veratraldehyde]	significant antifungal activities
O=C(O)C=Cc1ccccc1 [cinnamic acid]	significant antifungal activities

Test system: not given
Experiment: not given
Details: LigDFEG gene cluster, FIG. 2B; cited from earlier work

Molecule	enzyme activity shown by gene product
LigD: S. paucimobilis C alpha-dehydrogenase, ligD gene product	Cα-dehydrogenase activity
B1	glutathione lyase activity
B2	β-etherase activity

Test system: not listed separately
Experiment: in vitro biochemical assay for beta-etherase activity on fluorescent substrate MUAV (clarified E. coli cell extracts)
Details: 0.1 mM MUAV substrate; E. coli cell extracts expressing the protein
Text: The model substrate synthesis 150 for use in the biochemical screening for selective activity can be outsourced through a contract research organization (CRO). The enzyme discovery effort can initially be focused on identifying potential beta-etherase candidate genes identified through bioinformatic methods. […] The fluorescent substrate α-O-(β-methylumbelliferyl)acetovanillone (MUAV), for example, can be used in in vitro assays to identify beta-etherase function (Acme Biosciences, Mt. View, Calif.). The formation of 4 methylumbelliferone (4MU) upon hydrolysis of the aryl ether bond can be monitored by fluorescence, for example, at λex=365 nm and λem=450 nm (or 460 nm).
The enzyme screening 155 is done to identify novel etherases 160. […] Expression of the beta-etherase genes can be done in 5 ml or 25 ml samples of the recombinant E. coli strains in LB medium using induction with IPTG. Following induction, and cell harvest, cell pellets can be lysed using the BPER (Invitrogen) cell lysis system. […] The formation of 4 methylumbelliferone (4MU) upon hydrolysis of the aryl ether bond in MUAV can be monitored by fluorescence at λex=365 nm and λem=460 nm, and can provide quantitative measurement of beta-etherase function. Cell extracts of E. coli transformed with the S. paucimobilis ligE and ligF genes can be the assay positive controls. Test or unknown samples can include, for example, E. coli strains expressing putative beta-etherase genes from N. aromaticovorans.
This example describes a method for gene expression in E. coli, as well as beta-etherase biochemical assays. Expression of known and putative beta-etherase genes was performed using 5 ml cultures of the recombinant E. coli strains described herein in Luria Broth medium by induction of gene expression using isopropylthiogalactoside (IPTG) to a final concentration of 0.1 mM. Following induction, and cell harvest, the cells were disrupted using either sonication or the BPER (Invitrogen) cell lysis system.
In vitro reactions were performed in a total volume of 200 ul and contained: 25 mM TrisHCl pH 7.5; 0.5 mM dithiothreitol; 1 mM glutathione; 0.05 mM or 0.1 mM MUAV; 10 ul of clarified cell extract used to initiate the reactions. Following incubation for 2.5 hours at room temperature, a 50 ul sample of the reactions was terminated using 150 uL of 300 mM glycine/NaOH buffer pH 9. The formation of 4 methylumbelliferone (4MU) upon hydrolysis of the aryl ether bond was monitored by the increase in fluorescence at λex=360 nm and λem=450 nm using a Spectramax UV/visible/fluorescent spectrophotometer.
The total protein concentrations of the cell lysates were determined using the BCA reagent system for protein quantification (Pierce).
Induction might be also performed using IPTG concentrations in the range of 0.01-1 mM. Cell disruption might be also performed using toluene permeabilization, French pressure techniques, or using multiple freeze/thaw cycles in conjunction with lysozyme. Assay conditions might be varied to include TrisHCl at 10-150 mM concentrations and in the pH range of 6.5-8.5; 0-2 mM dithiothreitol; 0.05-2 mM glutathione; 0.01-5 mM MUAV substrate; 22-42° C. reaction temperatures. The biochemical assay might be performed as a fixed time point assay with reaction times ranging from 5 minutes-12 hours, or performed continuously without quenching with glycine/NaOH buffer to extract enzyme kinetic parameters.

Molecule	total activity (beta-etherase)
B2	7 rfu/ug
B3	1206 rfu/ug
B4	529 rfu/ug

Same assay, conditions: MUAV substrate

Molecule	beta-etherase activity on the MUAV substrate (in words)	fold more efficient than S. paucimobilis LigF protein	fold more efficient than S. paucimobilis ligE beta-etherase enzyme
B3	beta-etherase activity	approximately 2 fold	
B5	beta-etherase activity		
B6	beta-etherase activity		
B4	beta-etherase activity		approximately 75 fold

Test system: Escherichia coli
Experiment: not given
Details: benzaldehyde derivatives, each alone; cited from earlier work

Molecule	antibacterial activity against Escherichia coli
COc1cc(O)cc(OC)c1C=O [4-hydroxy-2,6-dimethoxybenzaldehyde]	antibacterial activity
O=Cc1cc(O)ccc1O [2,5-dihydroxybenzaldehyde]	antibacterial activity
O=Cc1ccccc1O [2-hydroxybenzaldehyde]	antibacterial activity
O=Cc1cccc(O)c1O [2,3-dihydroxybenzaldehyde]	antibacterial activity
O=Cc1ccc(O)c(O)c1O [2,3,4-trihydroxybenzaldehyde]	antibacterial activity
COc1ccc(O)c(C=O)c1 [2-hydroxy-5-methoxybenzaldehyde]	antibacterial activity
O=Cc1c(O)cc(O)cc1O [2,4,6-trihydroxybenzaldehyde]	antibacterial activity
O=Cc1ccc(O)cc1O [2,4-dihydroxybenzaldehyde]	antibacterial activity
COc1cccc(C=O)c1O [2-hydroxy-3-methoxybenzaldehyde]	antibacterial activity

Same assay, conditions: each compound alone; known; cited from earlier work

Molecule	antimicrobial activity against Escherichia coli
O=Cc1ccc(CO)o1 [5-hydroxymethylfurfural]	antimicrobial activity
O=Cc1ccco1 [furfural]	antimicrobial activity
COc1cc(C=O)cc(OC)c1O [syringaldehyde]	antimicrobial activity
O=Cc1ccc(O)cc1 [4-hydroxybenzaldehyde]	antimicrobial activity
COc1cc(C=O)ccc1O [vanillin]	antimicrobial activity
